SMILES strings stand for the structures.

Sequence of Kappa-type opioid receptor (P41144 whole entry): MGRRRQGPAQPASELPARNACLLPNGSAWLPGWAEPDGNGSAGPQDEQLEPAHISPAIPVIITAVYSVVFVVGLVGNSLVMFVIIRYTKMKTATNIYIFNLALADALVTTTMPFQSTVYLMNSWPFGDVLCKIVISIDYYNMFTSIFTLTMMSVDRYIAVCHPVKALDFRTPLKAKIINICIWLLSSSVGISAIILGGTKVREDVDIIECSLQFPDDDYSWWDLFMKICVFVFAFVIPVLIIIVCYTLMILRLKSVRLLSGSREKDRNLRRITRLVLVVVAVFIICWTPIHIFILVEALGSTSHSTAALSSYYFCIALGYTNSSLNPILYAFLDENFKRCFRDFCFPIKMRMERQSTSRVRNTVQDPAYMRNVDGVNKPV

This experiment addresses Kappa-type opioid receptor (Cavia porcellus, UniProt P41144). Kind of experiment: ChEBML_92409. The source says: Affinity at K opioid receptor on membranes prepared from guinea pig cerebellum by [3H]- 69593 displacement.
Regarding `Cc1ccc(C(C(=O)N(C)[C@H](CN2CC[C@H](O)C2)c2ccccc2)c2ccc(C)cc2)cc1`, the Ki – broadly, a measure of affinity in units of concentration, obtained from inhibition or displacement – turned out to be 20 nM.
For `CN(C(=O)C(c1ccccc1)c1ccccc1)[C@H](CN1CC[C@H](O)C1)c1cccc([N+](=O)[O-])c1`, affinity was put at a Ki of 20 nM.
In turn, `CN(C(=O)C1c2ccccc2CCc2ccccc21)[C@H](CN1CC[C@H](O)C1)c1ccccc1` gave a Ki of 20 nM.

These data come from BindingDB's records for doi:10.1016/S0960-894X(01)80179-7 (1994).
